{"source": "patent EP0603240B1", "about": "“SAFENING HERBICIDAL PYRAZOLYLSULFONYLUREAS” (priority 1991, dated 1993)", "type_in_all_cases": "in vivo", "key": {"[1]": {"test_system": "corn", "assay": "Example 7, Procedure II: Herbicide No. 1 + metolachlor (No. 12) with antidotes", "summary_of_the_method": "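Herbicide plus antidote, applied in acetone, mixed into silt loam top soil used to cover corn seed beds, with untreated and herbicide-only controls. After incorporation, containers got overhead irrigation equal to 0.6 cm rainfall, then sub-irrigation in greenhouse. Percent injury scored; antidote efficacy is injury difference; duplicate averages.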"}, "[2]": {"test_system": "corn", "assay": "Example 21, Procedure II: Herbicide No. 1 + SUTAN PLUS (butylate + antidote) with antidotes", "summary_of_the_method": "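Corn seeded in silt loam; cover soil mixed with butylate-plus-antidote product and test antidotes applied in acetone, compared with untreated and herbicide-only controls. Initial overhead irrigation equal to 0.6 cm rainfall, then greenhouse sub-irrigation. Percent injury scored; antidote efficacy is injury difference without versus with antidote.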"}, "[3]": {"test_system": "barnyardgrass (Echinochloa crusgalli)", "assay": "Example 19, Procedure II: Herbicide No. 1 + ERADICANE EXTRA with added antidotes"}, "[4]": {"test_system": "velvetleaf (Abutilon theophrasti)", "assay": "Example 19, Procedure II: Herbicide No. 1 + ERADICANE EXTRA with added antidotes"}, "[5]": {"test_system": "barnyardgrass (Echinochloa crusgalli)", "assay": "Example 21, Procedure II: Herbicide No. 1 + SUTAN PLUS (butylate + antidote) with antidotes"}, "[6]": {"test_system": "velvetleaf (Abutilon theophrasti)", "assay": "Example 21, Procedure II: Herbicide No. 1 + SUTAN PLUS (butylate + antidote) with antidotes"}, "[7]": {"test_system": "barnyardgrass (Echinochloa crusgalli)", "assay": "Example 6, Procedure II: Herbicide No. 1 + alachlor (No. 7) with antidotes", "summary_of_the_method": "(§1)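 Herbicide No. 1 plus alachlor, with or without antidote, was applied in acetone and mixed into a silt loam soil layer covering corn and weed seedbeds. Containers received 0.6 cm overhead irrigation, then greenhouse sub-irrigation. Injury was rated as percent, averaged over duplicates; antidote effect is the injury difference without and with antidote.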"}, "[8]": {"test_system": "velvetleaf (Abutilon theophrasti)", "assay": "Example 6, Procedure II: Herbicide No. 1 + alachlor (No. 7) with antidotes", "summary_of_the_method": "as §1"}, "[9]": {"test_system": "corn", "assay": "Example 8, Procedure II: Herbicide No. 1 + butachlor (No. 9) with antidotes", "summary_of_the_method": "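Corn sown in silt loam and covered with soil pre-mixed with acetone-applied Herbicide No. 1 plus butachlor, with or without antidote. Given 0.6 cm overhead irrigation, then sub-irrigated in greenhouse; antidote effect is percent injury without minus with antidote.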"}, "[10]": {"test_system": "corn", "assay": "Example 6, Procedure II: Herbicide No. 1 + alachlor (No. 7) with antidotes", "summary_of_the_method": "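Herbicide No. 1 plus alachlor and antidote, each applied in acetone, mixed into silt loam cover soil over seeded corn; untreated and herbicide-only controls included. Given initial overhead irrigation equal to 0.6 cm rainfall, then greenhouse sub-irrigation. Percent injury scored, duplicate averages; efficacy is injury without minus with antidote.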"}, "[11]": {"test_system": "barnyardgrass (Echinochloa crusgalli)", "assay": "Example 7, Procedure II: Herbicide No. 1 + metolachlor (No. 12) with antidotes", "summary_of_the_method": "(§2)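 Herbicide and antidote in acetone were mixed into silt loam soil used to cover seeded beds, followed by 0.6 cm overhead irrigation, then sub-irrigation in the greenhouse. Percent injury was scored against herbicide-alone and untreated controls, averaged over duplicates. Herbicide No. 1 was combined with metolachlor.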"}, "[12]": {"test_system": "velvetleaf (Abutilon theophrasti)", "assay": "Example 7, Procedure II: Herbicide No. 1 + metolachlor (No. 12) with antidotes", "summary_of_the_method": "as §2"}, "[13]": {"conditions": "Herbicide No.1 0.14 + No.12 3.36 kg/ha + antidote 2.24 kg/ha"}, "[14]": {"conditions": "Herbicide No.1 0.14 + No.12 3.36 kg/ha + antidote 8.96 kg/ha"}, "[15]": {"conditions": "Herbicide No.1 0.56 + No.12 3.36 kg/ha + antidote 2.24 kg/ha"}, "[16]": {"conditions": "Herbicide No.1 0.56 + No.12 3.36 kg/ha + antidote 8.96 kg/ha"}, "[17]": {"conditions": "Herbicide No.1 0.56 kg/ha + SUTAN + 8.96 kg/ha, antidote 2.24 kg/ha"}, "[18]": {"conditions": "Herbicide No.1 0.56 kg/ha + SUTAN + 8.96 kg/ha, antidote 8.96 kg/ha"}, "[19]": {"conditions": "Herbicide No.1 1.12 kg/ha + SUTAN + 8.96 kg/ha, antidote 2.24 kg/ha"}, "[20]": {"conditions": "Herbicide No.1 1.12 kg/ha + SUTAN + 8.96 kg/ha, antidote 8.96 kg/ha"}, "[21]": {"conditions": "Herbicide No.1 0.56 kg/ha + ERADICANE EXTRA 8.96 kg/ha, antidote 2.24 kg/ha"}, "[22]": {"conditions": "Herbicide No.1 0.56 kg/ha + ERADICANE EXTRA 8.96 kg/ha, antidote 8.96 kg/ha"}, "[23]": {"conditions": "Herbicide No.1 1.12 kg/ha + ERADICANE EXTRA 8.96 kg/ha, antidote 2.24 kg/ha"}, "[24]": {"conditions": "Herbicide No.1 1.12 kg/ha + ERADICANE EXTRA 8.96 kg/ha, antidote 8.96 kg/ha"}, "[25]": {"conditions": "Herbicide No.1 0.14 + No.7 4.48 kg/ha + antidote 2.24 kg/ha"}, "[26]": {"conditions": "Herbicide No.1 0.14 + No.7 4.48 kg/ha + antidote 8.96 kg/ha"}, "[27]": {"conditions": "Herbicide No.1 0.56 + No.7 4.48 kg/ha + antidote 2.24 kg/ha"}, "[28]": {"conditions": "Herbicide No.1 0.56 + No.7 4.48 kg/ha + antidote 8.96 kg/ha"}}}
{"smiles": "CC1(C)OC(c2ccco2)CN1C(=O)C(Cl)Cl", "note": "(stereo not drawn) [compound 15]", "values": [{"measurement": "% Injury Corn", "setting": "[1]; [13]", "result": 0, "unit": "%"}, {"measurement": "% Injury Corn", "setting": "[1]; [14]", "result": 10, "unit": "%"}, {"measurement": "% Injury Corn", "setting": "[1]; [15]", "result": 15, "unit": "%"}, {"measurement": "% Injury Corn", "setting": "[1]; [16]", "result": 15, "unit": "%"}, {"measurement": "% Injury Corn", "setting": "[2]; [17]", "result": 25, "unit": "%"}, {"measurement": "% Injury Corn", "setting": "[2]; [18]", "result": 25, "unit": "%"}, {"measurement": "% Injury Corn", "setting": "[2]; [19]", "result": 30, "unit": "%"}, {"measurement": "% Injury Corn", "setting": "[2]; [20]", "result": 20, "unit": "%"}, {"measurement": "% Injury BYG", "setting": "[3]; [21]", "result": 90, "unit": "%"}, {"measurement": "% Injury BYG", "setting": "[3]; [22]", "result": 85, "unit": "%"}, {"measurement": "% Injury BYG", "setting": "[3]; [23]", "result": 85, "unit": "%"}, {"measurement": "% Injury BYG", "setting": "[3]; [24]", "result": 90, "unit": "%"}, {"measurement": "% Injury VL", "setting": "[4]; [21]", "result": 70, "unit": "%"}, {"measurement": "% Injury VL", "setting": "[4]; [22]", "result": 75, "unit": "%"}, {"measurement": "% Injury VL", "setting": "[4]; [23]", "result": 85, "unit": "%"}, {"measurement": "% Injury VL", "setting": "[4]; [24]", "result": 75, "unit": "%"}, {"measurement": "% Injury BYG", "setting": "[5]; [17]", "result": 0, "unit": "%"}, {"measurement": "% Injury BYG", "setting": "[5]; [18]", "result": 10, "unit": "%"}, {"measurement": "% Injury BYG", "setting": "[5]; [19]", "result": 15, "unit": "%"}, {"measurement": "% Injury BYG", "setting": "[5]; [20]", "result": 40, "unit": "%"}, {"measurement": "% Injury VL", "setting": "[6]; [17]", "result": 50, "unit": "%"}, {"measurement": "% Injury VL", "setting": "[6]; [18]", "result": 60, "unit": "%"}, {"measurement": "% Injury VL", "setting": "[6]; [19]", "result": 65, "unit": "%"}, {"measurement": "% Injury VL", "setting": "[6]; [20]", "result": 65, "unit": "%"}, {"measurement": "% Injury BYG", "setting": "[7]; [25]", "result": 100, "unit": "%"}, {"measurement": "% Injury BYG", "setting": "[7]; [26]", "result": 100, "unit": "%"}, {"measurement": "% Injury BYG", "setting": "[7]; [27]", "result": 100, "unit": "%"}, {"measurement": "% Injury BYG", "setting": "[7]; [28]", "result": 100, "unit": "%"}, {"measurement": "% Injury VL", "setting": "[8]; [25]", "result": 80, "unit": "%"}, {"measurement": "% Injury VL", "setting": "[8]; [26]", "result": 65, "unit": "%"}, {"measurement": "% Injury VL", "setting": "[8]; [27]", "result": 90, "unit": "%"}, {"measurement": "% Injury VL", "setting": "[8]; [28]", "result": 95, "unit": "%"}, {"measurement": "% Injury Corn", "setting": "[9]; Herbicide No.1 0.14 + No.9 2.24 kg/ha + antidote 2.24 kg/ha", "result": 20, "unit": "%"}, {"measurement": "% Injury Corn", "setting": "[9]; Herbicide No.1 0.14 + No.9 2.24 kg/ha + antidote 8.96 kg/ha", "result": 15, "unit": "%"}, {"measurement": "% Injury Corn", "setting": "[9]; Herbicide No.1 0.56 + No.9 2.24 kg/ha + antidote 2.24 kg/ha", "result": 10, "unit": "%"}, {"measurement": "% Injury Corn", "setting": "[9]; Herbicide No.1 0.56 + No.9 2.24 kg/ha + antidote 8.96 kg/ha", "result": 10, "unit": "%"}, {"measurement": "% Injury Corn", "setting": "[10]; [25]", "result": 20, "unit": "%"}, {"measurement": "% Injury Corn", "setting": "[10]; [26]", "result": 10, "unit": "%"}, {"measurement": "% Injury Corn", "setting": "[10]; [27]", "result": 15, "unit": "%"}, {"measurement": "% Injury Corn", "setting": "[10]; [28]", "result": 15, "unit": "%"}, {"measurement": "% Injury BYG", "setting": "[11]; [13]", "result": 100, "unit": "%"}, {"measurement": "% Injury BYG", "setting": "[11]; [14]", "result": 100, "unit": "%"}, {"measurement": "% Injury BYG", "setting": "[11]; [15]", "result": 100, "unit": "%"}, {"measurement": "% Injury BYG", "setting": "[11]; [16]", "result": 100, "unit": "%"}, {"measurement": "% Injury VL", "setting": "[12]; [13]", "result": 70, "unit": "%"}, {"measurement": "% Injury VL", "setting": "[12]; [14]", "result": 65, "unit": "%"}, {"measurement": "% Injury VL", "setting": "[12]; [15]", "result": 75, "unit": "%"}, {"measurement": "% Injury VL", "setting": "[12]; [16]", "result": 70, "unit": "%"}]}
